From patent US20230265151A1, “GIP/GLP1 CO-AGONIST COMPOUNDS” (priority 2020, published 2023)
Like-named read-outs stand apart in the source and are kept apart here.

What was measured:
Format in all cases: cell-based
[1] = biological target: T1, hGCGR (Homo sapiens, UniProt P47871); assay: Functional cAMP formation (HTRF) in HEK-293 clonal cells expressing hGCGR, 0.1% bovine casein, without or with 1.0% human serum albumin; settings: geometric mean
T1 construct: expressed in transfected cells
In short: (§1)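 Readings of the HTRF 665/620 nm ratio, which falls as cAMP rises, were converted to nM cAMP using a standard curve after 30 min peptide exposure at 37° C.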

[2] = biological target: hGLP-1R (Homo sapiens, UniProt P43220); assay: Functional cAMP formation (HTRF) in HEK-293 clonal cells expressing hGLP-1R, 0.1% bovine casein, without or with 1.0% human serum albumin; parameters: expressed in transfected cells; settings: 37° C.; for EC50: 0.1% bovine casein and 1.0% human serum albumin, geometric mean
hGLP-1R, sequence (P43220 24-463): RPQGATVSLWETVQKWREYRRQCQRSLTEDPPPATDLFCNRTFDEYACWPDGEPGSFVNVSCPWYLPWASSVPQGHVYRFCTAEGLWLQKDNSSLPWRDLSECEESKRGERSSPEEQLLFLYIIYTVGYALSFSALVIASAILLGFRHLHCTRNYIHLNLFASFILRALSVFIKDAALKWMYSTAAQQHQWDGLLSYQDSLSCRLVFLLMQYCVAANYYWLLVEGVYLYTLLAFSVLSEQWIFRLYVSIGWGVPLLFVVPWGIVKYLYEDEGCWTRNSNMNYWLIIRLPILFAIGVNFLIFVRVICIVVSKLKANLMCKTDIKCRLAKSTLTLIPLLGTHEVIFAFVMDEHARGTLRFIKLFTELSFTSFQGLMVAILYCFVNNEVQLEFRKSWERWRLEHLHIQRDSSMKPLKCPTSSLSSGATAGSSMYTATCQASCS
In short: as §1

[3] = biological target: T2, hGIPR (Homo sapiens, UniProt P48546); assay: Functional cAMP formation (HTRF) in HEK-293 clonal cells expressing hGIPR, 0.1% bovine casein, without or with 1.0% human serum albumin; settings: for EC50: geometric mean
T2 construct: expressed in transfected cells
T2 sequence (P48546 22-466): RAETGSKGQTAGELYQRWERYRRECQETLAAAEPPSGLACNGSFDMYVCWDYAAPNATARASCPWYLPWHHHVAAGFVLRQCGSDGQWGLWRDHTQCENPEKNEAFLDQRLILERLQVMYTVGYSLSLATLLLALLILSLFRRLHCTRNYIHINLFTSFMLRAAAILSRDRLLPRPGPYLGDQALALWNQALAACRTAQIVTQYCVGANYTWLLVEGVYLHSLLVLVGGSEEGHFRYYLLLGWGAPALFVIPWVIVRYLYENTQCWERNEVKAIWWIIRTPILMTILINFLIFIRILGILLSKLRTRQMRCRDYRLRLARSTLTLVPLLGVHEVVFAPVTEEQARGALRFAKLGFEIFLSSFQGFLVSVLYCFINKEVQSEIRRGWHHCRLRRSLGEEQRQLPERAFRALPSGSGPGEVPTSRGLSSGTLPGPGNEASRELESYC
In short: as §1

[4] = 0.1% bovine casein and 1.0% human serum albumin, 37° C., read-out: hGCGR EC50, nM (SEM, n)
[5] = cAMP, incubated at 37° C., 0.1% bovine casein (no human serum albumin), read-out: hGCGR EC50, nM (SEM, n)
[6] = 0.1% bovine casein and 1.0% human serum albumin, 37° C., read-out: hGIPR EC50, nM (SEM, n)
[7] = HEK293, 0.1% bovine casein and 1.0% human serum albumin, 37° C., percent of maximal response to GIP(1-42)NH2, read-out: hGIPR Emax, % ± SEM
[8] = HEK293, percent of maximal response to GIP(1-42)NH2, 37° C., 0.1% bovine casein, arithmetic mean, read-out: hGIPR Emax, % ± SEM
[9] = HEK293, percent of maximal response to GLP-1(7-36)NH2, 0.1% bovine casein, arithmetic mean, read-out: hGLP-1R Emax, % ± SEM

T1 sequence (P47871 26-477): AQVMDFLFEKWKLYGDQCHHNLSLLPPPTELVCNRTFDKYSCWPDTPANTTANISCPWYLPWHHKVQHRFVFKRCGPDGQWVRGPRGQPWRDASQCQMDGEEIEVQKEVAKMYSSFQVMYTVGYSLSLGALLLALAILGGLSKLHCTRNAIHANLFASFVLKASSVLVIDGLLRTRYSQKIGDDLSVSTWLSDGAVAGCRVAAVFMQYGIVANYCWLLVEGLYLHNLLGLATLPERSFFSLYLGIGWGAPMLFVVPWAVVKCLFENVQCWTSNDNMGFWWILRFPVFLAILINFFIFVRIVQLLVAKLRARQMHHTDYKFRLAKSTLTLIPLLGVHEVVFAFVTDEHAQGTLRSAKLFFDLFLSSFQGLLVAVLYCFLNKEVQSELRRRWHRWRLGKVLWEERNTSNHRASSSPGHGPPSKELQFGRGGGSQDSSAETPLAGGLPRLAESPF

Compound	EC50 [1, 4]	EC50 [1, 5]	EC50 ([2]; read-out: hGLP-1R EC50, nM (SEM, n))	EC50 [3, 6]	Emax [3, 7]	Emax [3, 8]	Emax ([2]; HEK293, 0.1% bovine casein and 1.0% human serum albumin, percent of maximal response to GLP-1(7-36)NH2, read-out: hGLP-1R Emax, % ± SEM)	Emax [2, 9]	EC50 ([1]; hGCGR EC50, nM (SEM, n), 0.1% bovine casein and 1.0% human serum albumin, 37° C.)	EC50 ([1]; hGCGR EC50, nM (SEM, n), cAMP, incubated at 37° C., 0.1% bovine casein (no human serum albumin))	Emax ([2]; HEK293, read-out: hGLP-1R Emax, % ± SEM, percent of maximal response to GLP-1(7-36)NH2, 0.1% bovine casein, arithmetic mean)	EC50 ([2]; hGLP-1R EC50, nM (SEM, n))	Emax ([3]; HEK293, read-out: hGIPR Emax, % ± SEM, 0.1% bovine casein and 1.0% human serum albumin, 37° C., percent of maximal response to GIP(1-42)NH2)	EC50 ([3]; hGIPR EC50, nM (SEM, n), 0.1% bovine casein and 1.0% human serum albumin, 37° C.)	EC50 ([3]; hGIPR EC50, nM (SEM, n), cAMP, incubated at 37° C., 0.1% bovine casein (no human serum albumin))
CC[C@H](C)[C@H](NC(=O)[C@H](CC(C)C)NC(=O)[C@](C)(Cc1ccc(O)cc1)NC(=O)[C@@H](CCC(=O)O)NC(=O)[C@@H](NC(=O)[C@H](Cc1ccccc1)NC(=O)[C@H](CCC(=O)O)NC(=O)C(C)(C)NC(=O)[C@H](CCC(N)=O)NC(=O)[C@H](C)NC(=O)[C@H](CCCCNC(=O)COCCOCCNC(=O)COCCOCCNC(=O)CCCCCCCCCCCCC(=O)O)NC(=O)[C@H](CCCN)NC(=O)[C@H](CC(=O)O)NC(=O)[C@H](CC(C)C)NC(=O)[C@](C)(CC(C)C)NC(=O)[C@@H](NC(=O)[C@H](CO)NC(=O)[C@H](Cc1ccncc1)NC(=O)[C@H](CC(=O)O)NC(=O)[C@H](CO)NC(=O)[C@@H](NC(=O)[C@](C)(Cc1ccccc1F)NC(=O)[C@@H](NC(=O)CNC(=O)[C@H](CCC(=O)O)NC(=O)C(C)(C)NC(=O)[C@@H](N)Cc1ccc(O)cc1)[C@@H](C)O)[C@@H](C)O)[C@@H](C)CC)[C@@H](C)CC)C(=O)N[C@@H](CCCCNC(=O)COCCOCCNC(=O)COCCOCCNC(=O)CCCCCCCCCCCCC(=O)O)C(=O)NCC(=O)NCC(=O)N1CCC[C@H]1C(=O)N[C@@H](CO)C(=O)N[C@@H](CO)C(=O)NCC(=O)N[C@@H](C)C(=O)N1CCC[C@H]1C(=O)N1CCC[C@H]1C(=O)N1CCC[C@H]1C(=O)N[C@@H](CO)C(N)=O [Example 210]	> 9950 nM	> 9950 nM	8.86 nM	0.44 nM	68.1%	92.1%	–	–	–	–	–	–	–	–	–
CC[C@H](C)[C@H](NC(=O)[C@H](CC(C)C)NC(=O)[C@](C)(Cc1ccc(O)cc1)NC(=O)[C@@H](CCC(=O)O)NC(=O)[C@@H](NC(=O)[C@H](Cc1ccccc1)NC(=O)[C@H](CCC(=O)O)NC(=O)C(C)(C)NC(=O)[C@H](CCC(N)=O)NC(=O)[C@H](C)NC(=O)[C@H](CCCCNC(=O)COCCOCCNC(=O)COCCOCCNC(=O)CC[C@H](NC(=O)CCCCCCCCCCCCC(=O)O)C(=O)O)NC(=O)[C@H](CCCN)NC(=O)[C@H](CC(=O)O)NC(=O)[C@H](CC(C)C)NC(=O)[C@](C)(CC(C)C)NC(=O)[C@@H](NC(=O)C1(NC(=O)[C@H](Cc2ccncc2)NC(=O)[C@H](CC(=O)O)NC(=O)[C@H](CO)NC(=O)[C@@H](NC(=O)[C@](C)(Cc2ccccc2F)NC(=O)[C@@H](NC(=O)CNC(=O)[C@H](CCC(=O)O)NC(=O)C(C)(C)NC(=O)[C@@H](N)Cc2ccc(O)cc2)[C@@H](C)O)[C@@H](C)O)CCCC1)[C@@H](C)CC)[C@@H](C)CC)C(=O)N[C@@H](CCC(=O)O)C(=O)NCC(=O)NCC(=O)N[C@@H](CCCCNC(=O)COCCOCCNC(=O)COCCOCCNC(=O)CC[C@H](NC(=O)CCCCCCCCCCCCC(=O)O)C(=O)O)C(=O)N[C@@H](CO)C(=O)N[C@@H](CO)C(=O)NCC(=O)N[C@@H](C)C(=O)N1CCC[C@H]1C(=O)N1CCC[C@H]1C(=O)N1CCC[C@H]1C(=O)N[C@@H](CO)C(N)=O [Example 211]	> 9950 nM	> 9950 nM	–	2.16 nM	64.5%	91.6%	99%	93.1%	–	–	–	–	–	–	–
CC[C@H](C)[C@H](NC(=O)[C@H](CC(C)C)NC(=O)[C@](C)(Cc1ccc(O)cc1)NC(=O)[C@@H](CCC(=O)O)NC(=O)[C@@H](NC(=O)[C@H](Cc1ccccc1)NC(=O)[C@H](CCC(=O)O)NC(=O)C(C)(C)NC(=O)[C@H](CCC(N)=O)NC(=O)[C@H](C)NC(=O)[C@H](CCCCNC(=O)COCCOCCNC(=O)COCCOCCNC(=O)CC[C@H](NC(=O)CCCCCCCCCCCCC(=O)O)C(=O)O)NC(=O)[C@H](CCCN)NC(=O)[C@H](CC(=O)O)NC(=O)[C@H](CC(C)C)NC(=O)[C@](C)(CC(C)C)NC(=O)[C@@H](NC(=O)[C@](C)(CO)NC(=O)[C@H](Cc1ccncc1)NC(=O)[C@H](CC(=O)O)NC(=O)[C@H](CO)NC(=O)[C@@H](NC(=O)[C@](C)(Cc1ccccc1F)NC(=O)[C@@H](NC(=O)CNC(=O)[C@H](CCC(=O)O)NC(=O)C(C)(C)NC(=O)[C@@H](N)Cc1ccc(O)cc1)[C@@H](C)O)[C@@H](C)O)[C@@H](C)CC)[C@@H](C)CC)C(=O)N[C@@H](CCC(=O)O)C(=O)NCC(=O)NCC(=O)N[C@@H](CCCCNC(=O)COCCOCCNC(=O)COCCOCCNC(=O)CC[C@H](NC(=O)CCCCCCCCCCCCC(=O)O)C(=O)O)C(=O)N[C@@H](CO)C(=O)N[C@@H](CO)C(=O)NCC(=O)N[C@@H](C)C(=O)N1CCC[C@H]1C(=O)N1CCC[C@H]1C(=O)N1CCC[C@H]1C(=O)N[C@@H](CO)C(N)=O [Example 213]	> 9950 nM	> 9950 nM	–	–	95.6%	92%	–	94.8%	–	–	–	–	–	–	–
CC[C@H](C)[C@H](NC(=O)[C@H](CC(C)C)NC(=O)[C@](C)(Cc1ccc(O)cc1)NC(=O)[C@H](CCCCNC(=O)COCCOCCNC(=O)COCCOCCNC(=O)CC[C@H](NC(=O)CCCCCCCCCCCCC(=O)O)C(=O)O)NC(=O)[C@@H](NC(=O)[C@H](Cc1ccccc1)NC(=O)[C@H](CCC(=O)O)NC(=O)C(C)(C)NC(=O)[C@H](CCC(N)=O)NC(=O)[C@H](C)NC(=O)[C@H](CCCCNC(=O)COCCOCCNC(=O)COCCOCCNC(=O)CC[C@H](NC(=O)CCCCCCCCCCCCC(=O)O)C(=O)O)NC(=O)[C@H](CCCN)NC(=O)[C@H](CC(=O)O)NC(=O)[C@H](CC(C)C)NC(=O)[C@](C)(CC(C)C)NC(=O)[C@@H](NC(=O)[C@](C)(CO)NC(=O)[C@H](Cc1ccncc1)NC(=O)[C@H](CC(=O)O)NC(=O)[C@H](CO)NC(=O)[C@@H](NC(=O)[C@](C)(Cc1ccccc1F)NC(=O)[C@@H](NC(=O)CNC(=O)[C@H](CCC(=O)O)NC(=O)C(C)(C)NC(=O)[C@@H](N)Cc1ccc(O)cc1)[C@@H](C)O)[C@@H](C)O)[C@@H](C)CC)[C@@H](C)CC)C(=O)N[C@@H](CCC(=O)O)C(=O)NCC(=O)NCC(=O)N1CCC[C@H]1C(=O)N[C@@H](CO)C(=O)N[C@@H](CO)C(=O)NCC(=O)N[C@@H](C)C(=O)N1CCC[C@H]1C(=O)N1CCC[C@H]1C(=O)N1CCC[C@H]1C(=O)N[C@@H](CO)C(N)=O [Example 214]	–	–	–	–	–	–	–	–	> 9950 nM	> 9950 nM	93.2%	17.9 nM	80.4%	2.03 nM	0.0351 nM
